# Measurements as given in US11207312B2, “Metallo-beta-lactamase inhibitors and methods of use thereof” (priority 2017, dated 2021).
# pIC50: −log10 of the molar value.
# Legend:
# NDM-1 = NDM-1 (Klebsiella pneumoniae, UniProt C7C422); experiment: biochemical; assay type: biochemical; conditions: CCF2-FA fluorescence assay, 2 hours at 25° C.
# Outline: (§1)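 IC50s come from 4-parameter fits of inhibition versus inhibitor concentration, tested from 20 μM down to 0.00063 μM. Enzyme, CCF2-FA (1.25 μM) and inhibitor react 2 h at 25° C, pH 7, with 10 μM ZnSO4 and 0.005% Tween-20.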
# IMP-1 = IMP-1 (Serratia marcescens, UniProt P52699); experiment: biochemical; conditions: CCF2-FA fluorescence assay, 2 hours at 25° C.; read-out: IMP1 IC50
# IMP-1, sequence (P52699 whole entry, looked up, species assumed): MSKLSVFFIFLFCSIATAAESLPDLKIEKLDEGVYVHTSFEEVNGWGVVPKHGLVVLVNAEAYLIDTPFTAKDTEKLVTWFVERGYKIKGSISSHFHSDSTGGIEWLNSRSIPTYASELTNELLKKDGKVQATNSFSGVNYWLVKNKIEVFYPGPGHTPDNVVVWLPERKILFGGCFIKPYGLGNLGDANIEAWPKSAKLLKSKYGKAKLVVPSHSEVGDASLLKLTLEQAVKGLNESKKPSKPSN
# Outline: as §1
# VIM-1 = VIM-1 (Pseudomonas aeruginosa (strain ATCC 15692 / DSM 22644 / CIP 104116 / JCM 14847 / LMG 12228 / 1C / PRS 101 / PAO1), UniProt A0A0F7KYQ8); experiment: biochemical; conditions: CCF2-FA fluorescence assay, 2 hours at 25° C.; read-out: VIM1 IC50
# Outline: as §1
# VIM-2 = VIM-2 (Escherichia coli, UniProt Q5U7L7); experiment: biochemical; conditions: CCF2-FA fluorescence assay; read-out: VIM2 IC50
# [1] = system: Escherichia coli expressing NDM-1 (CLB30016); assay type: cell-based; conditions: with imipenem 1 μg/ml; 95% inhibition of bacterial growth
# Outline: (§2)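 Imipenem 1 μg/ml + inhibitor titration in cation-adjusted MHB (1.1× stock medium); overnight-cultured colonies suspended in saline, diluted 1:100. 35 °C, 22–24 h; absorbance read. MITC95 = lowest compound conc giving 95% growth inhibition.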
# [2] = system: Klebsiella pneumoniae expressing VIM-1 (IHMA599644); assay type: cell-based; conditions: with imipenem 1 μg/ml; 95% inhibition of bacterial growth
# Outline: as §2
# [3] = system: Serratia marcescens expressing IMP-1 (CL5741); assay type: cell-based; conditions: with imipenem 1 μg/ml; 95% inhibition of bacterial growth
# Outline: as §2
# [4] = system: P. aeruginosa MB9798 (efflux+, IMP-1 plasmid); conditions: for MB9798 MITC95 P. aeruginosa uM Efflux WT: efflux + (MB9798) strain, imipenem at 2 μg/mL, in the presence of a class A, C, D serine β-lactamase inhibitor closely related to relebactam; for Efflux ratio: fold difference between efflux+ (MB9798) and efflux− (MB9799) strains
# Outline: (§3)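 PAO1-derived isogenic pair (oprD+, inducible AmpC), efflux+ MB5919 or efflux− MB5890 parent, carrying an electroporated IMP-1 plasmid from a clinical isolate. Microbroth MIC with fixed imipenem and/or ceftazidime (usually CLSI breakpoint) plus fixed class A/C inhibitor; MBL inhibitor serially titrated, concentration restoring susceptibility recorded.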
# [5] = system: P. aeruginosa MB9799 (efflux-, IMP-1 plasmid); assay type: cell-based, Pseudomonas aeruginosa; conditions: efflux − (MB9799) strain; imipenem at 2 μg/mL; in the presence of a class A, C, D serine β-lactamase inhibitor closely related to relebactam
# Outline: as §3
# NDM-1, sequence (C7C422 whole entry, looked up, species assumed): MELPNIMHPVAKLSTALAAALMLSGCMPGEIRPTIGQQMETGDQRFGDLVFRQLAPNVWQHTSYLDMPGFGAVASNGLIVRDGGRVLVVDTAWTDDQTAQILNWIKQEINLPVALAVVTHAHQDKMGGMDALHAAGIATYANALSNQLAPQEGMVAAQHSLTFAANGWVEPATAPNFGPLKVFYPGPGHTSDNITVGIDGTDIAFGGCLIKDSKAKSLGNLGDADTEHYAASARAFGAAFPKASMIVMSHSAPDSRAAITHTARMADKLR
SMILES,pIC50 (NDM-1),pIC50 (IMP-1),pIC50 (VIM-1),pIC50 (VIM-2),CLB30016 E. coli MITC95 NDM [1] [µM],IHMA599644 K. pneumoniae MITC95 VIM [2] [µM],CL5741 S. marcescens MITC95 IMP [3] [µM],MB9798 MITC95 P. aeruginosa uM Efflux WT [4] [µM],Efflux ratio [4],MB9799 MITC95 P. aeruginosa uM Efflux Mutant [5] [µM]
"NC[C@@H](O)CNS(=O)(=O)c1ccc(N2CCC(O)CC2)c(-c2nn[nH]n2)c1S(N)(=O)=O [Example 120, (R)-N1-(3-amino-2-hydroxypropyl)-4-(4-hydroxypiperidin-1-yl)-3-(2H-tetrazol-5-yl)benzene-1,2-disulfonamide]",9.25,9.12,9.59,9.10,1.56,3.13,1.56,1.56,1.00,1.56
"NS(=O)(=O)c1c(S(=O)(=O)N[C@@H]2CCNC2)ccc(N2CCCCC2=O)c1-c1nn[nH]n1 [Example 154, (R)-4-(2-oxopiperidin-1-yl)-N1-(pyrrolidin-3-yl)-3-(2H-tetrazol-5-yl)benzene-1,2-disulfonamide]",9.46,8.07,9.59,9.14,1.56,6.25,1.56,3.13,2.00,1.56
"NC1CCN(c2ccc(S(=O)(=O)N[C@@H]3CCNC3)c(S(N)(=O)=O)c2-c2nnn[nH]2)CC1 [Example 73, 4-(4-aminopiperidin-1-yl)-N1-[(3R)-pyrrolidin-3-yl]-3-(1H-tetrazol-5-yl)benzene-1,2-disulfonamide]",8.01,7.78,9.51,7.79,0.78,1.56,1.56,1.56,2.00,0.78
"NC[C@@H](O)CNS(=O)(=O)c1ccc(N2CC[C@@H](CN)C2)c(-c2nn[nH]n2)c1S(N)(=O)=O [Example 121, N1-((R)-3-amino-2-hydroxypropyl)-4-((S)-3-(aminomethyl)pyrrolidin-1-yl)-3-(2H-tetrazol-5-yl)benzene-1,2-disulfonamide]",7.23,7.18,8.34,7.52,1.56,0.78,1.56,6.25,2.00,3.13
"NCCC(=O)N1CCN(c2ccc(S(=O)(=O)NC[C@H](O)CN)c(S(N)(=O)=O)c2-c2nn[nH]n2)CC1 [Example 145, (R)—N1-(3-amino-2-hydroxypropyl)-4-(4-(3-aminopropanoyl)piperazin-1-yl)-3-(2H-tetrazol-5-yl)benzene-1,2-disulfonamide]",8.77,8.33,9.34,8.08,0.39,1.56,0.78,0.78,1.00,0.78
"C[N+](C)(C)CCCCNc1ccc(S(=O)(=O)N[C@@H]2CCNC2)c(S(N)(=O)=O)c1-c1nnn[nH]1 [Example 72, N,N,N-trimethyl-4-({4-[(3R)-pyrrolidin-3-ylsulfamoyl]-3-sulfamoyl-2-(1H-tetrazol-5-yl)phenyl}amino)butan-1-aminium]",8.48,8.03,8.70,8.22,1.56,6.25,3.13,25.00,8.00,3.13
"NS(=O)(=O)c1c(S(=O)(=O)N[C@@H]2CCNC2)ccc(N2CCCC(CO)C2)c1-c1nnn[nH]1 (stereo partly drawn) [Example 107, 4-[3-(hydroxymethyl)piperidin-1-yl]-N1-[(3R)-pyrrolidin-3-yl]-3-(1H-tetrazol-5-yl)benzene-1,2-disulfonamide]",9.60,8.96,9.72,9.38,3.13,6.25,3.13,3.13,2.00,1.56
"NC[C@@H](O)CNS(=O)(=O)c1ccc(N2CC[C@H](N)C2)c(-c2nn[nH]n2)c1S(N)(=O)=O [Example 126, N1-((R)-3-amino-2-hydroxypropyl)-4-((S)-3-aminopyrrolidin-1-yl)-3-(2H-tetrazol-5-yl)benzene-1,2-disulfonamide]",6.70,6.91,8.11,7.49,1.56,0.78,3.13,6.25,2.00,3.13
"NS(=O)(=O)c1c(S(=O)(=O)C2CNC2)ccc(N2CCCC(CO)C2)c1-c1nnn[nH]1 (centres unmarked) [Example 57, 6-(azetidin-3-ylsulfonyl)-3-[3-(hydroxymethyl)piperidin-1-yl]-2-(1H-tetrazol-5-yl)benzenesulfonamide]",8.61,8.36,8.84,8.73,3.13,12.50,3.13,25.00,15.99,1.56
NC[C@@H](O)CNS(=O)(=O)c1ccc(N2CC[C@@H](N)[C@H](F)C2)c(-c2nn[nH]n2)c1S(N)(=O)=O [Example 2],8.19,8.47,9.77,8.39,0.20,0.78,0.78,0.78,1.00,0.78
"NS(=O)(=O)c1c(S(=O)(=O)N[C@@H]2CCNC2)ccc(N2CCNC2=S)c1-c1nn[nH]n1 [Example 191, (R)—N1-(pyrrolidin-3-yl)-3-(2H-tetrazol-5-yl)-4-(2-thioxoimidazolidin-1-yl)benzene-1,2-disulfonamide]",9.03,7.60,9.68,8.94,0.78,3.13,1.56,6.25,4.00,1.56
